In PubChem BioAssay AID1259407 (Chemical Carcinogenesis Research Information System (CCRIS), 2018):
Activity calls are given as the source filed them. No rule for the calls is given here.

System: CCRIS mutagenicity, Ames/micronucleus/aberration tests
Test: CCRIS mutagenicity studies
[1] = Test System: AMES SALMONELLA TYPHIMURIUM, Strain/Indicator: TA98, Metabolic Activation: HAMSTER, LIVER, S-9, AROCLOR 1254 (10%), Method: PREINCUBATION
[2] = Test System: AMES SALMONELLA TYPHIMURIUM, Strain/Indicator: TA98, Metabolic Activation: NONE, Method: PREINCUBATION
[3] = Test System: AMES SALMONELLA TYPHIMURIUM, Strain/Indicator: TA98, Metabolic Activation: RAT, LIVER, S-9, AROCLOR 1254 (10%), Method: PREINCUBATION
[4] = Test System: AMES SALMONELLA TYPHIMURIUM, Strain/Indicator: TA100, Metabolic Activation: HAMSTER, LIVER, S-9, AROCLOR 1254 (10%), Method: PREINCUBATION
[5] = Test System: AMES SALMONELLA TYPHIMURIUM, Strain/Indicator: TA100, Metabolic Activation: NONE, Method: PREINCUBATION
[6] = Test System: AMES SALMONELLA TYPHIMURIUM, Strain/Indicator: TA100, Metabolic Activation: RAT, LIVER, S-9, AROCLOR 1254 (10%), Method: PREINCUBATION
[7] = Test System: AMES SALMONELLA TYPHIMURIUM, Strain/Indicator: TA100, Metabolic Activation: S-9, Method: STANDARD PLATE
[8] = Test System: AMES SALMONELLA TYPHIMURIUM, Strain/Indicator: TA1535, Metabolic Activation: HAMSTER, LIVER, S-9, AROCLOR 1254 (10%), Method: PREINCUBATION
[9] = Test System: AMES SALMONELLA TYPHIMURIUM, Strain/Indicator: TA1535, Metabolic Activation: NONE, Method: PREINCUBATION
[10] = Test System: AMES SALMONELLA TYPHIMURIUM, Strain/Indicator: TA1535, Metabolic Activation: RAT, LIVER, S-9, AROCLOR 1254 (10%), Method: PREINCUBATION
[11] = Test System: AMES SALMONELLA TYPHIMURIUM, Strain/Indicator: TA1537, Metabolic Activation: HAMSTER, LIVER, S-9, AROCLOR 1254 (10%), Method: PREINCUBATION
[12] = Test System: AMES SALMONELLA TYPHIMURIUM, Strain/Indicator: TA1537, Metabolic Activation: NONE, Method: PREINCUBATION
[13] = Test System: AMES SALMONELLA TYPHIMURIUM, Strain/Indicator: TA1537, Metabolic Activation: RAT, LIVER, S-9, AROCLOR 1254 (10%), Method: PREINCUBATION

Structure (SMILES) | mutagenic call [1] | mutagenic call [2] | mutagenic call [3] | mutagenic call [4] | mutagenic call [5] | mutagenic call [6] | mutagenic call [7] | mutagenic call [8] | mutagenic call [9] | mutagenic call [10] | mutagenic call [11] | mutagenic call [12] | mutagenic call [13] | other results
Cc1cc(O)c(C(C)(C)C)cc1Sc1cc(C(C)(C)C)c(O)cc1C | inactive; negative | inactive; negative | inactive; negative | inactive; negative | inactive; negative | inactive; negative | inactive; negative | inactive; negative | inactive; negative | inactive; negative | inactive; negative | inactive; negative | inactive; negative | mutagenic call (Test System: AMES SALMONELLA TYPHIMURIUM, Strain/Indicator: TA98, Metabolic Activation: NONE, Method: STANDARD PLATE): inactive; negative; mutagenic call (Test System: AMES SALMONELLA TYPHIMURIUM, Strain/Indicator: TA98, Metabolic Activation: S-9, Method: STANDARD PLATE): inactive; negative; mutagenic call (Test System: AMES SALMONELLA TYPHIMURIUM, Strain/Indicator: TA100, Metabolic Activation: NONE, Method: STANDARD PLATE): inactive; negative
Nc1ccc2sncc2c1 |  |  |  |  |  |  | active; positive |  |  |  |  |  |  | 
CCOP(=O)(OCC)OCC | inactive; negative | inactive; negative | inactive; negative | inactive; negative | inactive; negative | inactive; negative |  | inactive; negative | inactive; negative | inactive; negative | inactive; negative | inactive; negative | inactive; negative | mutagenic call (Test System: AMES SALMONELLA TYPHIMURIUM, Strain/Indicator: TA102, Metabolic Activation: NONE, Method: STANDARD PLATE): inactive; negative; mutagenic call (Test System: AMES SALMONELLA TYPHIMURIUM, Strain/Indicator: TA2638, Metabolic Activation: NONE, Method: STANDARD PLATE): inactive; negative; mutagenic call (Test System: E. COLI, Strain/Indicator: WP2 (PKM101), Metabolic Activation: NONE, Method: STANDARD PLATE): inactive; negative; mutagenic call (Test System: E. COLI, Strain/Indicator: WP2 UVRA (PKM101), Metabolic Activation: NONE, Method: STANDARD PLATE): inactive; negative
O[C@H]1C=Cc2ccc3nc4ccc5ccccc5c4cc3c2[C@@H]1O |  |  |  |  |  |  |  |  |  |  |  |  |  | mutagenic call (Test System: AMES SALMONELLA TYPHIMURIUM, Strain/Indicator: TA98, Metabolic Activation: GUINEA PIG, LIVER, S-9, 3-METHYLCHOLANTHRENE, Method: STANDARD PLATE): active; positive; mutagenic call (Test System: AMES SALMONELLA TYPHIMURIUM, Strain/Indicator: TA100, Metabolic Activation: GUINEA PIG, LIVER, S-9, 3-METHYLCHOLANTHRENE, Method: STANDARD PLATE): active; positive; mutagenic call (Test System: CHINESE HAMSTER V-79, Strain/Indicator: V-79/6-THIOGUANINE, Metabolic Activation: GUINEA PIG, LIVER, S-9, 3-METHYLCHOLANTHRENE): active; positive
Oc1cc(Cl)c(Cl)c(Cl)c1 | inactive; negative | inactive; negative | inactive; negative | inactive; negative | inactive; negative | inactive; negative |  | inactive; negative | inactive; negative | inactive; negative |  | inactive; negative |  | mutagenic call (End Point: IN VITRO CHROMOSOMAL ABERRATIONS, Test System: CHINESE HAMSTER LUNG CELLS (CHL), Metabolic Activation: RAT, LIVER, S-9, KC-400): inactive; negative; authors describe results as equivocal; mutagenic call (End Point: IN VITRO CHROMOSOMAL ABERRATIONS, Test System: CHINESE HAMSTER OVARY CELLS (CHO), Metabolic Activation: NONE): inactive; negative; mutagenic call (End Point: IN VITRO CHROMOSOMAL ABERRATIONS, Test System: CHINESE HAMSTER OVARY CELLS (CHO), Metabolic Activation: RAT, LIVER, S-9, AROCLOR 1254): inactive; negative; mutagenic call (Test System: AMES SALMONELLA TYPHIMURIUM, Strain/Indicator: TA97, Metabolic Activation: HAMSTER, LIVER, S-9, AROCLOR 1254 (10%), Method: PREINCUBATION): inactive; negative; mutagenic call (Test System: AMES SALMONELLA TYPHIMURIUM, Strain/Indicator: TA97, Metabolic Activation: HAMSTER, LIVER, S-9, AROCLOR 1254 (30%), Method: PREINCUBATION): inactive; negative; mutagenic call (Test System: AMES SALMONELLA TYPHIMURIUM, Strain/Indicator: TA97, Metabolic Activation: NONE, Method: PREINCUBATION): inactive; negative; mutagenic call (Test System: AMES SALMONELLA TYPHIMURIUM, Strain/Indicator: TA97, Metabolic Activation: RAT, LIVER, S-9, AROCLOR 1254 (10%), Method: PREINCUBATION): inactive; negative; mutagenic call (Test System: AMES SALMONELLA TYPHIMURIUM, Strain/Indicator: TA97, Metabolic Activation: RAT, LIVER, S-9, AROCLOR 1254 (30%), Method: PREINCUBATION): inactive; negative; mutagenic call (Test System: AMES SALMONELLA TYPHIMURIUM, Strain/Indicator: TA98, Metabolic Activation: HAMSTER, LIVER, S-9, AROCLOR 1254 (30%), Method: PREINCUBATION): inactive; negative; mutagenic call (Test System: AMES SALMONELLA TYPHIMURIUM, Strain/Indicator: TA98, Metabolic Activation: RAT, LIVER, S-9, AROCLOR 1254 (30%), Method: PREINCUBATION): inactive; negative; mutagenic call (Test System: AMES SALMONELLA TYPHIMURIUM, Strain/Indicator: TA100, Metabolic Activation: HAMSTER, LIVER, S-9, AROCLOR 1254 (30%), Method: PREINCUBATION): inactive; negative; mutagenic call (Test System: AMES SALMONELLA TYPHIMURIUM, Strain/Indicator: TA100, Metabolic Activation: RAT, LIVER, S-9, AROCLOR 1254 (30%), Method: PREINCUBATION): inactive; negative; mutagenic call (Test System: AMES SALMONELLA TYPHIMURIUM, Strain/Indicator: TA1535, Metabolic Activation: HAMSTER, LIVER, S-9, AROCLOR 1254 (30%), Method: PREINCUBATION): inactive; negative; mutagenic call (Test System: AMES SALMONELLA TYPHIMURIUM, Strain/Indicator: TA1535, Metabolic Activation: RAT, LIVER, S-9, AROCLOR 1254 (30%), Method: PREINCUBATION): inactive; negative; mutagenic call (Test System: AMES SALMONELLA TYPHIMURIUM, Strain/Indicator: TA1537, Metabolic Activation: HAMSTER, LIVER, S-9, AROCLOR 1254 (30%), Method: PREINCUBATION): inactive; negative; mutagenic call (Test System: AMES SALMONELLA TYPHIMURIUM, Strain/Indicator: TA1537, Metabolic Activation: RAT, LIVER, S-9, AROCLOR 1254 (30%), Method: PREINCUBATION): inactive; negative
CC(=O)OCc1ccc(N=Nc2ccc(N(C)C)cc2)cc1 |  |  |  |  |  |  |  |  |  |  |  |  |  | mutagenic call (Test System: AMES SALMONELLA TYPHIMURIUM, Strain/Indicator: TA98, Metabolic Activation: RAT, LIVER, S-9, POLYCHLORINATED BIPHENYLS, Method: PREINCUBATION): active; positive; mutagenic call (Test System: AMES SALMONELLA TYPHIMURIUM, Strain/Indicator: TA100, Metabolic Activation: RAT, LIVER, S-9, POLYCHLORINATED BIPHENYLS, Method: PREINCUBATION): active; positive
